Literature values as cited in US20230027739A1, “ANTIGEN-BINDING AND ANTIGEN D[…]” (Entrada Therapeutics, Inc., priority 2021, published 2023).

What was measured:
[1] = for Amino Acid Hydrophobicity, Eisenberg and Weiss: hydrophobicity scale of Eisenberg and Weiss; for Amino Acid Hydrophobicity, Engleman et al.: hydrophobicity scale of Engleman et al.; for Amino Acid Hydrophobicity, Hoop and Woods: hydrophobicity scale of Hoop and Woods; for Amino Acid Hydrophobicity, Janin: hydrophobicity scale of Janin; for Amino Acid Hydrophobicity, Kyrie and Doolittle: hydrophobicity scale of Kyrie and Doolittle
[2] = for Amino Acid SASA Values, Theoretical: theoretical values as reported by Tien, et al.

## N[C@@H](Cc1ccc(O)cc1)C(=O)O [Tyr]
[1]
  Amino Acid Hydrophobicity, Eisenberg and Weiss: 0.02
  Amino Acid Hydrophobicity, Engleman et al.: −0.7
  Amino Acid Hydrophobicity, Hoop and Woods: −2.3
  Amino Acid Hydrophobicity, Janin: −0.4
  Amino Acid Hydrophobicity, Kyrie and Doolittle: −1.3

## N[C@@H](CCC(=O)O)C(=O)O [Glu]
[1]
  Amino Acid Hydrophobicity, Eisenberg and Weiss: −0.62
  Amino Acid Hydrophobicity, Engleman et al.: −8.2
  Amino Acid Hydrophobicity, Hoop and Woods: 3.0
  Amino Acid Hydrophobicity, Janin: −0.7
  Amino Acid Hydrophobicity, Kyrie and Doolittle: −3.5

## NC(=O)C[C@H](N)C(=O)O [Asparagine]
[2]
  Amino Acid SASA Values, Miller et al. (1987): 158.0 Å^2
  Amino Acid SASA Values, Rose et al. (1985): 165.5 Å^2
  Amino Acid SASA Values, Empirical: 187.0 Å^2
  Amino Acid SASA Values, Theoretical: 195.0 Å^2

## O=C(O)[C@@H]1CCCN1 [Proline]
[2]
  Amino Acid SASA Values, Miller et al. (1987): 143.0 Å^2
  Amino Acid SASA Values, Rose et al. (1985): 146.8 Å^2
  Amino Acid SASA Values, Empirical: 154.0 Å^2

## N[C@@H](Cc1c[nH]c2ccccc12)C(=O)O [Trp]
[1]
  Amino Acid Hydrophobicity, Eisenberg and Weiss: 0.37
  Amino Acid Hydrophobicity, Engleman et al.: 1.9
  Amino Acid Hydrophobicity, Hoop and Woods: −3.4
  Amino Acid Hydrophobicity, Janin: 0.3
  Amino Acid Hydrophobicity, Kyrie and Doolittle: −0.9

## N[C@@H](CS)C(=O)O [Cysteine]
[2]
  Amino Acid SASA Values, Miller et al. (1987): 140.0 Å^2
  Amino Acid SASA Values, Rose et al. (1985): 146.1 Å^2
  Amino Acid SASA Values, Empirical: 148.0 Å^2
  Amino Acid SASA Values, Theoretical: 167.0 Å^2

## N[C@@H](Cc1c[nH]cn1)C(=O)O [Histidine]
[2]
  Amino Acid SASA Values, Miller et al. (1987): 194.0 Å^2
  Amino Acid SASA Values, Rose et al. (1985): 202.5 Å^2
  Amino Acid SASA Values, Empirical: 216.0 Å^2
  Amino Acid SASA Values, Theoretical: 224.0 Å^2

## N=C(N)NCCC[C@H](N)C(=O)O [Arg]
[1]
  Amino Acid Hydrophobicity, Eisenberg and Weiss: −1.80
  Amino Acid Hydrophobicity, Engleman et al.: −12.3
  Amino Acid Hydrophobicity, Hoop and Woods: 3.0
  Amino Acid Hydrophobicity, Janin: −1.4
  Amino Acid Hydrophobicity, Kyrie and Doolittle: −4.5

## NCCCC[C@H](N)C(=O)O [Lysine]
[2]
  Amino Acid SASA Values, Miller et al. (1987): 211.0 Å^2
  Amino Acid SASA Values, Rose et al. (1985): 225.8 Å^2
  Amino Acid SASA Values, Empirical: 230.0 Å^2
  Amino Acid SASA Values, Theoretical: 236.0 Å^2

## C[C@@H](O)[C@H](N)C(=O)O [Thr]
[1]
  Amino Acid Hydrophobicity, Eisenberg and Weiss: −0.18
  Amino Acid Hydrophobicity, Engleman et al.: 1.2
  Amino Acid Hydrophobicity, Hoop and Woods: −0.4
  Amino Acid Hydrophobicity, Janin: −0.2
  Amino Acid Hydrophobicity, Kyrie and Doolittle: −0.7

## N[C@@H](Cc1ccccc1)C(=O)O [Phenylalanine]
[2]
  Amino Acid SASA Values, Miller et al. (1987): 218.0 Å^2
  Amino Acid SASA Values, Rose et al. (1985): 222.8 Å^2
  Amino Acid SASA Values, Empirical: 228.0 Å^2
  Amino Acid SASA Values, Theoretical: 240.0 Å^2

## C[C@H](N)C(=O)O [Ala]
[1]
  Amino Acid Hydrophobicity, Eisenberg and Weiss: 0.25
  Amino Acid Hydrophobicity, Engleman et al.: 1.6
  Amino Acid Hydrophobicity, Hoop and Woods: −0.5
  Amino Acid Hydrophobicity, Janin: 0.3
  Amino Acid Hydrophobicity, Kyrie and Doolittle: 1.8

## N[C@@H](CO)C(=O)O [Ser]
[1]
  Amino Acid Hydrophobicity, Eisenberg and Weiss: −0.26
  Amino Acid Hydrophobicity, Engleman et al.: 0.6
  Amino Acid Hydrophobicity, Hoop and Woods: 0.3
  Amino Acid Hydrophobicity, Janin: −0.1
  Amino Acid Hydrophobicity, Kyrie and Doolittle: −0.8

## C[C@@H](O)[C@H](N)C(=O)O [Threonine]
[2]
  Amino Acid SASA Values, Miller et al. (1987): 146.0 Å^2
  Amino Acid SASA Values, Rose et al. (1985): 152.5 Å^2
  Amino Acid SASA Values, Empirical: 163.0 Å^2
  Amino Acid SASA Values, Theoretical: 172.0 Å^2

## CSCC[C@H](N)C(=O)O [Met]
[1]
  Amino Acid Hydrophobicity, Eisenberg and Weiss: 0.26
  Amino Acid Hydrophobicity, Engleman et al.: 3.4
  Amino Acid Hydrophobicity, Hoop and Woods: −1.3
  Amino Acid Hydrophobicity, Janin: 0.4
  Amino Acid Hydrophobicity, Kyrie and Doolittle: 1.9

## N[C@@H](CC(=O)O)C(=O)O [Asp]
[1]
  Amino Acid Hydrophobicity, Eisenberg and Weiss: −0.72
  Amino Acid Hydrophobicity, Engleman et al.: −9.2
  Amino Acid Hydrophobicity, Hoop and Woods: 3.0
  Amino Acid Hydrophobicity, Janin: −0.6
  Amino Acid Hydrophobicity, Kyrie and Doolittle: −3.5

## C[C@H](N)C(=O)O [Alanine]
[2]
  Amino Acid SASA Values, Miller et al. (1987): 113.0 Å^2
  Amino Acid SASA Values, Rose et al. (1985): 118.1 Å^2
  Amino Acid SASA Values, Empirical: 121.0 Å^2
  Amino Acid SASA Values, Theoretical: 129.0 Å^2

## CSCC[C@H](N)C(=O)O [Methionine]
[2]
  Amino Acid SASA Values, Miller et al. (1987): 204.0 Å^2
  Amino Acid SASA Values, Rose et al. (1985): 203.4 Å^2
  Amino Acid SASA Values, Empirical: 203.0 Å^2
  Amino Acid SASA Values, Theoretical: 224.0 Å^2

## NCC(=O)O [Glycine]
[2]
  Amino Acid SASA Values, Miller et al. (1987): 85.0 Å^2
  Amino Acid SASA Values, Rose et al. (1985): 88.1 Å^2
  Amino Acid SASA Values, Empirical: 97.0 Å^2
  Amino Acid SASA Values, Theoretical: 104.0 Å^2

## NCCCC[C@H](N)C(=O)O [Lys]
[1]
  Amino Acid Hydrophobicity, Eisenberg and Weiss: −1.10
  Amino Acid Hydrophobicity, Engleman et al.: −8.8
  Amino Acid Hydrophobicity, Hoop and Woods: 3.0
  Amino Acid Hydrophobicity, Janin: −1.8
  Amino Acid Hydrophobicity, Kyrie and Doolittle: −3.9

## N[C@@H](Cc1ccc(O)cc1)C(=O)O [Tyrosine]
[2]
  Amino Acid SASA Values, Miller et al. (1987): 229.0 Å^2
  Amino Acid SASA Values, Rose et al. (1985): 236.8 Å^2
  Amino Acid SASA Values, Empirical: 255.0 Å^2
  Amino Acid SASA Values, Theoretical: 263.0 Å^2

## NC(=O)C[C@H](N)C(=O)O [Asn]
[1]
  Amino Acid Hydrophobicity, Eisenberg and Weiss: −0.64
  Amino Acid Hydrophobicity, Engleman et al.: −4.8
  Amino Acid Hydrophobicity, Hoop and Woods: 0.2
  Amino Acid Hydrophobicity, Janin: −0.5
  Amino Acid Hydrophobicity, Kyrie and Doolittle: −3.5

## N[C@@H](CO)C(=O)O [Serine]
[2]
  Amino Acid SASA Values, Miller et al. (1987): 122.0 Å^2
  Amino Acid SASA Values, Rose et al. (1985): 129.8 Å^2
  Amino Acid SASA Values, Empirical: 143.0 Å^2
  Amino Acid SASA Values, Theoretical: 155.0 Å^2

## CC(C)[C@H](N)C(=O)O [Valine]
[2]
  Amino Acid SASA Values, Miller et al. (1987): 160.0 Å^2
  Amino Acid SASA Values, Rose et al. (1985): 164.5 Å^2
  Amino Acid SASA Values, Empirical: 165.0 Å^2
  Amino Acid SASA Values, Theoretical: 174.0 Å^2

## CC[C@H](C)[C@H](N)C(=O)O [Isoleucine]
[2]
  Amino Acid SASA Values, Miller et al. (1987): 182.0 Å^2
  Amino Acid SASA Values, Rose et al. (1985): 181.0 Å^2
  Amino Acid SASA Values, Empirical: 195.0 Å^2
  Amino Acid SASA Values, Theoretical: 197.0 Å^2

## N[C@@H](CCC(=O)O)C(=O)O [Glutamate]
[2]
  Amino Acid SASA Values, Miller et al. (1987): 183.0 Å^2
  Amino Acid SASA Values, Rose et al. (1985): 186.2 Å^2
  Amino Acid SASA Values, Empirical: 214.0 Å^2

## N=C(N)NCCC[C@H](N)C(=O)O [Arginine]
[2]
  Amino Acid SASA Values, Miller et al. (1987): 241.0 Å^2
  Amino Acid SASA Values, Rose et al. (1985): 256.0 Å^2
  Amino Acid SASA Values, Empirical: 265.0 Å^2
  Amino Acid SASA Values, Theoretical: 274.0 Å^2

## N[C@@H](Cc1c[nH]c2ccccc12)C(=O)O [Tryptophan]
[2]
  Amino Acid SASA Values, Miller et al. (1987): 259.0 Å^2
  Amino Acid SASA Values, Rose et al. (1985): 266.3 Å^2
  Amino Acid SASA Values, Empirical: 264.0 Å^2
  Amino Acid SASA Values, Theoretical: 285.0 Å^2

## N[C@@H](CC(=O)O)C(=O)O [Aspartate]
[2]
  Amino Acid SASA Values, Miller et al. (1987): 151.0 Å^2
  Amino Acid SASA Values, Rose et al. (1985): 158.7 Å^2
  Amino Acid SASA Values, Empirical: 187.0 Å^2
  Amino Acid SASA Values, Theoretical: 193.0 Å^2

## N[C@@H](Cc1c[nH]cn1)C(=O)O [His]
[1]
  Amino Acid Hydrophobicity, Eisenberg and Weiss: −0.40
  Amino Acid Hydrophobicity, Engleman et al.: −3.0
  Amino Acid Hydrophobicity, Hoop and Woods: −0.5
  Amino Acid Hydrophobicity, Janin: −0.1
  Amino Acid Hydrophobicity, Kyrie and Doolittle: −3.2

## CC(C)[C@H](N)C(=O)O [Val]
[1]
  Amino Acid Hydrophobicity, Eisenberg and Weiss: 0.54
  Amino Acid Hydrophobicity, Engleman et al.: 2.6
  Amino Acid Hydrophobicity, Hoop and Woods: −1.5
  Amino Acid Hydrophobicity, Janin: 0.6
  Amino Acid Hydrophobicity, Kyrie and Doolittle: 4.2

## N[C@@H](Cc1ccccc1)C(=O)O [Phe]
[1]
  Amino Acid Hydrophobicity, Eisenberg and Weiss: 0.61
  Amino Acid Hydrophobicity, Engleman et al.: 3.7
  Amino Acid Hydrophobicity, Hoop and Woods: −2.5
  Amino Acid Hydrophobicity, Janin: 0.5
  Amino Acid Hydrophobicity, Kyrie and Doolittle: 2.8

## N[C@@H](CS)C(=O)O [Cys]
[1]
  Amino Acid Hydrophobicity, Eisenberg and Weiss: 0.04
  Amino Acid Hydrophobicity, Engleman et al.: 2.0
  Amino Acid Hydrophobicity, Hoop and Woods: −1.0
  Amino Acid Hydrophobicity, Janin: 0.9
  Amino Acid Hydrophobicity, Kyrie and Doolittle: 2.5
